Patent US20100056524A1, “Compound” (priority 2008, published 2010)
Where a name gives a salt, the structure may show the parent alone. Read-outs that look alike come from different tables or passages of the source.

Tests used:
RSK2 = target: T1, RSK2 (Homo sapiens, UniProt P51812); assay: RSK2 protein kinase assay; assay type: biochemical; settings: for remaining activity at 10 µM: 10 μM compound; for residual kinase activity RSK2: 1 μm compound; for remaining activity at 1 µM: 1 μM compound
T1 construct: All protein kinases were of human origin and encoded full length proteins, unless indicated otherwise; made in house
Text: (§1) All protein kinases were of human origin and encoded full length proteins, unless indicated otherwise. They were either expressed as glutathione S-transferase (GST) fusion proteins in Escherichia Coli or as hexahistidine (His6)-tagged proteins in insect Sf21 cells. GST fusion proteins were purified by affinity chromatography on glutathione-Sepharose, and His6-tagged proteins on nickel/nitriloacetate-agarose. The procedures for expressing some of the protein kinases used herein have been detailed previously.^8,9 The following sections outline the DNA vectors synthesised and the procedures used to express and purifying protein kinases that have not been reported previously.
(§2) All assays (25.5 μl) were carried out at room temperature (21° C.) and were linear with respect to time and enzyme concentration under the conditions used. Assays were performed for 30 min using Multidrop Micro reagent dispensers (Thermo Electron Corporation, Waltham, Mass. 02454, USA) in a 96-well format. The concentration of magnesium acetate in the assays was 10 mM and the [γ-33P] ATP (800 cpm/pmol) was used at 5, 20 or 50 μM as indicated, in order to be at or below the Km for ATP for each enzyme. Protein kinases assayed at 5 μM ATP were: —ERK1, ERK8, PKBα, MARK3, Aurora C. Protein kinases assayed at 20 μM ATP were: —JNK1, PDK1, CHK1, CHK2, CDK2 and Aurora B. Protein kinases assayed at 50 μM ATP were: —MNK2, IKKepsilon and TBK1.
(§3) The assays were initiated with MgATP, stopped by addition of 5 μl of 0.5 M orthophosphoric acid and spotted on to P81 filterplates using a unifilter harvester (PerkinElmer, Boston, Mass. 02118, USA). The IC50 values of inhibitors were determined after carrying out assays at 10 different concentrations of each compound.
(§4) Unless stated otherwise, enzymes were diluted in 50 mM Tris/HCl pH 7.5, 0.1 mM EGTA, 1 mg/ml BSA, 0.1% (v/v) 2-mercaptoethanol and assayed in 50 mM Tris/HCl pH 7.5, 0.1 mM EGTA, 0.1% (v/v) 2-mercaptoethanol.

PDK1 = target: T2, PDK1 (Homo sapiens, UniProt O15530); assay: PDK1 protein kinase assay; assay type: biochemical; settings: for remaining activity at 10 µM: 10 μM compound; for residual kinase activity PDK1: 1 μm compound; for remaining activity at 1 µM: 1 μM compound
T2 construct: 3-phosphoinositide-dependent protein kinase-1 [52-556]; His6; made in house; host or cells: insect Sf21 cells
T2 sequence (O15530 52-556): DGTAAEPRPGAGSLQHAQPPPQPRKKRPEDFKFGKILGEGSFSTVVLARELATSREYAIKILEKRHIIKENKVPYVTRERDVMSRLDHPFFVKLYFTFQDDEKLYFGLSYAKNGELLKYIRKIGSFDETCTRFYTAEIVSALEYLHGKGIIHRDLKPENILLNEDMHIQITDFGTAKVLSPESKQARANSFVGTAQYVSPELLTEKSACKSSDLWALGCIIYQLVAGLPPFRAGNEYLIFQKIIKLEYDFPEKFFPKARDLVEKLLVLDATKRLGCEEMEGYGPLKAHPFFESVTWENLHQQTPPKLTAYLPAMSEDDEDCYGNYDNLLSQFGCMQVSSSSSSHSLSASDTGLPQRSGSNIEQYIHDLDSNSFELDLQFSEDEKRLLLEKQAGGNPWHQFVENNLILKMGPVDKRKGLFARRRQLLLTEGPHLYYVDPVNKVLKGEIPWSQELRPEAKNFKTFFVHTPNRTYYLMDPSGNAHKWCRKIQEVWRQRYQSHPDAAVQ
Text: as §1
(§5) The following kinases were expressed in Sf21 cells: Aurora B and Aurora C, extra-cellular signal-regulated kinase 8 (ERK8), microtubule affinity regulating kinase 3 (MARK3), protein kinase Bα[118-480][S473D], protein kinase Bβ (PKBβ[120-481][S474D], 3-phosphoinositide-dependent protein kinase-1 [52-556]
as §2, §3, §4

SmMLCK = SmMLCK protein kinase assay; assay type: biochemical, human; settings: for residual kinase activity: SmMLCK
Text: as §1, §2, §3, §4

PHK = PHK protein kinase assay; assay type: biochemical, human; settings: for residual kinase activity: PHK
Text: as §1, §2, §3, §4

PIM3 = target: T3, PIM3 (Homo sapiens, UniProt Q86V86); assay: PIM3 protein kinase assay; assay type: biochemical; settings: for remaining activity at 10 µM: 10 μM compound; for residual kinase activity PIM3: 1 μm compound; for remaining activity at 1 µM: 1 μM compound
T3 construct: All protein kinases were of human origin and encoded full length proteins, unless indicated otherwise; made in house
Text: as §1, §2, §3, §4

IKKe = target: T4, IKKe (Homo sapiens, UniProt Q14164); assay: IKKe protein kinase assay; assay type: biochemical; settings: for remaining activity at 10 µM: 10 μM compound; for residual kinase activity IKKe: 1 μm compound; for remaining activity at 1 µM: 1 μM compound
T4 construct: All protein kinases were of human origin and encoded full length proteins, unless indicated otherwise; His6; made in house; host or cells: insect Sf21 cells
T4 sequence (Q14164 1-716): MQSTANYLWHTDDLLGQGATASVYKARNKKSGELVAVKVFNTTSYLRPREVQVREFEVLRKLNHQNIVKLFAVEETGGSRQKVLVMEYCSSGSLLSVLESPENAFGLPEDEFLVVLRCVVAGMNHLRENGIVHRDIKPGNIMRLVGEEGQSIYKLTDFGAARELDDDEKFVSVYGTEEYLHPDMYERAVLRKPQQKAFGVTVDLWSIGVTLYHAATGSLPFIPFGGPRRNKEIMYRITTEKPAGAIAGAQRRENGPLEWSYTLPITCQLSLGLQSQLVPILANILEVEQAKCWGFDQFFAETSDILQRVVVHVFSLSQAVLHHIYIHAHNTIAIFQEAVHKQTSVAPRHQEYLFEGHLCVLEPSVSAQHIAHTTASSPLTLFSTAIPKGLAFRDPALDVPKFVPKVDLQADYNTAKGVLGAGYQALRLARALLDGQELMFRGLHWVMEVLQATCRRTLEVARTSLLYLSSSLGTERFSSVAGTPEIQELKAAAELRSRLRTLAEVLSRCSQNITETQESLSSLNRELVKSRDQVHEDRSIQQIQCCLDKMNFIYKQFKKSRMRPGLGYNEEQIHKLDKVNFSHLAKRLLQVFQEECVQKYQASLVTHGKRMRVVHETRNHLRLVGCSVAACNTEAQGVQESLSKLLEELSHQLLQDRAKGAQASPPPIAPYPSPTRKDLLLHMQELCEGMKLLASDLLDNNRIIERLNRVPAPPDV
Text: as §1, §5, §2, §3, §4

IGF-1R = IGF-1R protein kinase assay; assay type: biochemical, human; settings: for residual kinase activity: IGF-1R
Text: as §1, §2, §3, §4

BTK = target: T5, BTK (Homo sapiens, UniProt Q06187); assay: BTK protein kinase assay; assay type: biochemical; settings: for remaining activity at 10 µM: 10 μM compound; for residual kinase activity BTK: 1 μm compound; for remaining activity at 1 µM: 1 μM compound
T5 construct: All protein kinases were of human origin and encoded full length proteins, unless indicated otherwise; made in house
Text: as §1, §2, §3, §4

[1] = read-out: residual kinase activity RSK2
[2] = read-out: residual kinase activity PDK1
[3] = read-out: residual kinase activity PIM3
[4] = read-out: residual kinase activity IKKe
[5] = read-out: residual kinase activity BTK
[6] = RSK2, read-out: residual kinase activity
[7] = PDK1, 20 μM ATP, read-out: residual kinase activity
[8] = PIM3, read-out: residual kinase activity
[9] = IKKe, 50 μM ATP, read-out: residual kinase activity
[10] = BTK, read-out: residual kinase activity

T1 sequence (P51812 whole entry): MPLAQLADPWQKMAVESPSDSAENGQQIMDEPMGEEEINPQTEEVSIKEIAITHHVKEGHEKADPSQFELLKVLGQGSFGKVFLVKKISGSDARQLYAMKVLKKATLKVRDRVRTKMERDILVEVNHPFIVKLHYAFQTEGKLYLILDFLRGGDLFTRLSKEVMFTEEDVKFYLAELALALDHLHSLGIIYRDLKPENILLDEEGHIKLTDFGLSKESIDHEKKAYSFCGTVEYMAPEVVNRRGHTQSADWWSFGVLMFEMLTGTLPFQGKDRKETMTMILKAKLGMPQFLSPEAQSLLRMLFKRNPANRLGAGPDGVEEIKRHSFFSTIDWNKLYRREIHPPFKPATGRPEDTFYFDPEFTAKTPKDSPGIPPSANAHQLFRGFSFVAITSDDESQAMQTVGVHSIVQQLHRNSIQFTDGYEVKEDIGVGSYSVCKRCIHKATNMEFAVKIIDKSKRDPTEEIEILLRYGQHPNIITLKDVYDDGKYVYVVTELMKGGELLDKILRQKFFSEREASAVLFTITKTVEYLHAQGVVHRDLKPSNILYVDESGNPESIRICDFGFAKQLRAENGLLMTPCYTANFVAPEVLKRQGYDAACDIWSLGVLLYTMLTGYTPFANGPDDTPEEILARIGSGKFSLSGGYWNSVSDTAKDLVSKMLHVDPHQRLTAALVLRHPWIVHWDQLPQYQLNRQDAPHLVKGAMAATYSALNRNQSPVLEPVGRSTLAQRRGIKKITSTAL
T5 sequence (Q06187 whole entry): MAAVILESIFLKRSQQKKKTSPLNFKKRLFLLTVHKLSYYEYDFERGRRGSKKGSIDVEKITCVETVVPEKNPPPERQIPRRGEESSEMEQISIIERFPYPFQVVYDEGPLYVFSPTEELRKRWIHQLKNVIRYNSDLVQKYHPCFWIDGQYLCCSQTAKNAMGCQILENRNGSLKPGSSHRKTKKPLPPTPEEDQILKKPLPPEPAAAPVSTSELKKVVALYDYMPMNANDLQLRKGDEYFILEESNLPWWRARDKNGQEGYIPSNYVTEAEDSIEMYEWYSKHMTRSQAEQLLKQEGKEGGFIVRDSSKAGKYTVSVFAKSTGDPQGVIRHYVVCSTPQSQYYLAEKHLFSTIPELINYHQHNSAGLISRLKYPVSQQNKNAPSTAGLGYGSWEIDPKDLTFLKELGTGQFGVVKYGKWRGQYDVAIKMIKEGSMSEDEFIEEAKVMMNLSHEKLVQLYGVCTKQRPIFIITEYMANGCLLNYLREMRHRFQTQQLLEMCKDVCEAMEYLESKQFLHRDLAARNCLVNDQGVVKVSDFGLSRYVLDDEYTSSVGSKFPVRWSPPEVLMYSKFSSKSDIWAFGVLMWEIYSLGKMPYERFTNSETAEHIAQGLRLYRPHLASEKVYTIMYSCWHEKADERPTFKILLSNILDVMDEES

O=C(NCCCNc1nc(Nc2cccc(F)c2)ncc1Br)C1CCC1 [Compound A, cyclobutanecarboxylic acid {3-[5-bromo-2-(3-fluoro-phenylamino)-pyrimidin-4-ylamino]-propyl}-amide, reference compound]
remaining activity at 10 µM (RSK2; [1]): 9% | residual kinase activity RSK2 (RSK2): 38% | remaining activity at 10 µM (PDK1; [2]): 1% | residual kinase activity PDK1 (PDK1): 6% | residual kinase activity SmMLCK (SmMLCK; 10 μM compound): 59% | residual kinase activity SmMLCK (SmMLCK; 1 μm compound): 101% | residual kinase activity PHK (PHK; 10 μM compound): 0% | residual kinase activity PHK (PHK; 1 μm compound): 7% | remaining activity at 10 µM (PIM3; [3]): 21% | residual kinase activity PIM3 (PIM3): 78% | remaining activity at 10 µM (IKKe; [4]): 3% | residual kinase activity IKKe (IKKe): 13% | residual kinase activity IGF-1R (IGF-1R; 10 μM compound): 21% | residual kinase activity IGF-1R (IGF-1R; 1 μm compound): 78% | remaining activity at 10 µM (BTK; [5]): 33% | residual kinase activity BTK (BTK): 94%

O=C(NCCCNc1nc(Nc2cccc(F)c2)ncc1C1CC1)C1CCC1 [Example 23, Cyclobutanecarboxylic acid {3-[5-cyclopropyl-2-(3-fluoro-phenylamino)-pyrimidin-4-ylamino]-propyl}-amide]
remaining activity at 10 µM (RSK2; [1]): 14% | residual kinase activity RSK2 (RSK2): 44% | remaining activity at 1 µM (RSK2; [6]): 44% | remaining activity at 10 µM (RSK2; [6]): 14% | remaining activity at 10 µM (PDK1; [2]): 10% | residual kinase activity PDK1 (PDK1): 44% | remaining activity at 1 µM (PDK1; [7]): 44% | remaining activity at 10 µM (PDK1; [7]): 10% | residual kinase activity SmMLCK (SmMLCK; 10 μM compound): 74% | residual kinase activity SmMLCK (SmMLCK; 1 μm compound): 72% | residual kinase activity (SmMLCK; 1 μM compound): 72% | residual kinase activity (SmMLCK; 10 μM compound): 74% | residual kinase activity PHK (PHK; 10 μM compound): 3% | residual kinase activity PHK (PHK; 1 μm compound): 28% | residual kinase activity (PHK; 1 μM compound): 28% | residual kinase activity (PHK; 10 μM compound): 3% | remaining activity at 10 µM (PIM3; [3]): 37% | residual kinase activity PIM3 (PIM3): 73% | remaining activity at 1 µM (PIM3; [8]): 73% | remaining activity at 10 µM (PIM3; [8]): 37% | remaining activity at 10 µM (IKKe; [4]): 5% | residual kinase activity IKKe (IKKe): 15% | remaining activity at 1 µM (IKKe; [9]): 15% | remaining activity at 10 µM (IKKe; [9]): 5% | residual kinase activity IGF-1R (IGF-1R; 10 μM compound): 87% | residual kinase activity IGF-1R (IGF-1R; 1 μm compound): 86% | residual kinase activity (IGF-1R; 1 μM compound): 86% | residual kinase activity (IGF-1R; 10 μM compound): 87% | remaining activity at 10 µM (BTK; [5]): 25% | residual kinase activity BTK (BTK): 74% | remaining activity at 1 µM (BTK; [10]): 74% | remaining activity at 10 µM (BTK; [10]): 25%

O=C(NCCCNc1nc(Nc2cccc(N3CCCC3=O)c2)ncc1C1CC1)c1cccs1 [Example 47, Thiophene-2-carboxylic acid (3-{5-cyclopropyl-2-[3-(2-oxo-pyrrolidin-1-yl)-phenylamino]-pyrimidin-4-ylamino}-propyl)-amide. Hydrochloride salt]
remaining activity at 1 µM (RSK2; [6]): 65% | remaining activity at 10 µM (RSK2; [6]): 28% | remaining activity at 1 µM (PDK1; [7]): 9% | remaining activity at 10 µM (PDK1; [7]): 2% | residual kinase activity (SmMLCK; 1 μM compound): 102% | residual kinase activity (SmMLCK; 10 μM compound): 81% | residual kinase activity (PHK; 1 μM compound): 78% | residual kinase activity (PHK; 10 μM compound): 24% | remaining activity at 1 µM (PIM3; [8]): 99% | remaining activity at 10 µM (PIM3; [8]): 78% | remaining activity at 1 µM (IKKe; [9]): 14% | remaining activity at 10 µM (IKKe; [9]): 6% | residual kinase activity (IGF-1R; 1 μM compound): 39% | residual kinase activity (IGF-1R; 10 μM compound): 35% | remaining activity at 1 µM (BTK; [10]): 93% | remaining activity at 10 µM (BTK; [10]): 61%

O=C(NCCCNc1nc(Nc2cccnc2)ncc1C1CC1)c1cccs1 [Example 50, Thiophene-2-carboxylic acid {3-[5-cyclopropyl-2-(pyridin-3-ylamino)-pyrimidin-4-ylamino]-propyl}-amide]
remaining activity at 1 µM (RSK2; [6]): 69% | remaining activity at 10 µM (RSK2; [6]): 28% | remaining activity at 1 µM (PDK1; [7]): 22% | remaining activity at 10 µM (PDK1; [7]): 4% | residual kinase activity (SmMLCK; 1 μM compound): 88% | residual kinase activity (SmMLCK; 10 μM compound): 75% | residual kinase activity (PHK; 1 μM compound): 64% | residual kinase activity (PHK; 10 μM compound): 15% | remaining activity at 1 µM (PIM3; [8]): 102% | remaining activity at 10 µM (PIM3; [8]): 50% | remaining activity at 1 µM (IKKe; [9]): 28% | remaining activity at 10 µM (IKKe; [9]): 7% | residual kinase activity (IGF-1R; 1 μM compound): 47% | residual kinase activity (IGF-1R; 10 μM compound): 32% | remaining activity at 1 µM (BTK; [10]): 93% | remaining activity at 10 µM (BTK; [10]): 66%
